System: hypoxia-inducible endogenous VEGF expression in HeLa cells
Experiment: Hypoxia-inducible endogenous VEGF expression, VEGF ELISA of conditioned media (dose-response EC50)
Assay type: cell-based
Settings: HeLa cells, hypoxic conditions (1% O2)
How it was run: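 HeLa cells were cultured 24-48 h under hypoxia (1% O2, 5% CO2, balance N2) with or without compound. Conditioned-media VEGF protein was measured by ELISA against a standard curve. EC50 and CC50 come from percentage-inhibition curves over, e.g., seven concentrations, with maximal inhibition set at 100%.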

| SMILES | EC50 (Homo sapiens) | EC50 |
| --- | --- | --- |
| Cc1ccc(OC(=O)N2CCc3c([nH]c4ccc(Cl)cc34)C2c2ccc(OCCCN(C)C)cc2)cc1 (centres unmarked) [Compound 502] | 40 to 200 nM |  |
| CNc1ncc(C2c3[nH]c4ccc(Br)cc4c3CCN2C(=O)Oc2ccc(OC)cc2)cn1 (centres unmarked) [Compound 503] | 40 to 200 nM |  |
| CCOC(=O)N1CCc2c([nH]c3ccc(Cl)cc23)C1C1CC=CCC1 (centres unmarked) [Compound 504] | 40 to 200 nM |  |
| CCOC(=O)N1CCc2c([nH]c3ccc(Br)cc23)C1c1ccc(C(N)=O)cc1 (centres unmarked) [Compound 505] | 40 to 200 nM |  |
| CCOC(=O)N1CCc2c([nH]c3ccc(Cl)cc23)C1c1cnc(NC)nc1 (centres unmarked) [Compound 506] | 40 to 200 nM |  |
| CCOC(=O)N1CCc2c([nH]c3ccc(Cl)cc23)C1CC(C)c1ccccc1 (centres unmarked) [Compound 508] | 40 to 200 nM |  |
| CCOC(=O)N1CCc2c([nH]c3ccc(Cl)cc23)C1c1ccc(C(=O)NCCN2CCOCC2)cc1 (centres unmarked) [Compound 509] | 40 to 200 nM |  |
| CCCC1c2[nH]c3ccc(Cl)cc3c2CCN1C(=O)OCC (centres unmarked) [Compound 510] | 40 to 200 nM |  |
| CCOC(=O)N1CCc2c([nH]c3ccc(Cl)cc23)C1CCc1ccccc1 (centres unmarked) [Compound 511] | 40 to 200 nM |  |
| CCOC(=O)N1CCc2c([nH]c3ccc(Cl)cc23)C1c1ccc(C(=O)NCCCN2CCCC2=O)cc1 (centres unmarked) [Compound 512] | 40 to 200 nM |  |
| CCOC(=O)N1CCc2c([nH]c3ccc(Cl)cc23)C1c1ccsc1 (centres unmarked) [Compound 513] | 40 to 200 nM |  |
| CCOC(=O)N1CCc2c([nH]c3ccc(Cl)cc23)C1c1ccc(C(=O)N2CCCN(C)CC2)cc1 (centres unmarked) [Compound 514] | 40 to 200 nM |  |
| CCCCCCC1c2[nH]c3ccc(Cl)cc3c2CCN1C(=O)OCC (centres unmarked) [Compound 515] | 200 to 1000 nM |  |
| CCOC(=O)N1CCc2c([nH]c3ccc(Br)cc23)C1c1ccc(C(=O)N(C)CCN(C)C)cc1 (centres unmarked) [Compound 516] | 200 to 1000 nM |  |
| CNc1ncc(C2c3[nH]c4ccc(Cl)cc4c3CCN2C(=O)Oc2ccc(OC)cc2)cn1 (centres unmarked) [Compound 517] | 200 to 1000 nM |  |
| CCOC(=O)N1CCc2c([nH]c3ccc(Cl)cc23)C1c1ccc(C(=O)N(C)CCc2ccccn2)cc1 (centres unmarked) [Compound 518] | 200 to 1000 nM |  |
| O=C(O)c1ccc(C2c3[nH]c4ccc(Br)cc4c3CCN2C(=O)Oc2ccc(Cl)cc2)cc1 (centres unmarked) [Compound 519] | 200 to 1000 nM |  |
| CCOC(=O)N1CCc2c([nH]c3ccc(Cl)cc23)C1c1cccc(C(=O)N(C)C)c1 (centres unmarked) [Compound 520] | 200 to 1000 nM |  |
| CCOC(=O)N1CCc2c([nH]c3ccc(Cl)cc23)C1c1ccc(C(=O)NCCC2CCCN2C)cc1 (centres unmarked) [Compound 521] | 200 to 1000 nM |  |
| CCOC(=O)N1CCc2c([nH]c3ccc(Cl)cc23)C1C(C)Cc1ccc(C(C)C)cc1 (centres unmarked) [Compound 523] | 200 to 1000 nM |  |
| CCOC(=O)N1CCc2c([nH]c3ccc(Cl)cc23)C1c1cccc(C(=O)NC)c1 (centres unmarked) [Compound 524] | 200 to 1000 nM |  |
| CCOC(=O)N1CCc2c([nH]c3ccc(Cl)cc23)C1c1cccc(C(=O)N2CCN(CC)CC2)c1 (centres unmarked) [Compound 525] | 200 to 1000 nM |  |
| CCOC(=O)N1CCc2c([nH]c3ccc(Cl)cc23)C1c1ccc(C(=O)N2CCC(N3CCCC3)CC2)cc1 (centres unmarked) [Compound 527] | 200 to 1000 nM |  |

| SMILES | EC50 (Homo sapiens) | EC50 |
| --- | --- | --- |
| CCOC(=O)N1CCc2c([nH]c3ccc(Cl)cc23)C1C(C)Cc1ccc(C(C)(C)C)cc1 (centres unmarked) [Compound 528] | 200 to 1000 nM |  |
| CCOC(=O)N1CCc2c([nH]c3ccc(Cl)cc23)C1c1cccc(C(=O)N2CCN(C)CC2)c1 (centres unmarked) [Compound 529] | 200 to 1000 nM |  |
| CCOC(=O)N1CCc2c([nH]c3ccc(Cl)cc23)C1c1ccc(C(=O)N2CCC(N3CCCCC3)CC2)cc1 (centres unmarked) [Compound 531] | 200 to 1000 nM |  |
| CC(CC1NCCc2c1[nH]c1ccc(Cl)cc21)c1ccccc1 (centres unmarked) [Compound 532] | 200 to 1000 nM |  |
| CCOC(=O)N1CCc2c([nH]c3ccc(Cl)cc23)C1c1ccc(C(=O)NCCCn2ccnc2)cc1 (centres unmarked) [Compound 533] | 200 to 1000 nM |  |
| CCOC(=O)N1CCc2c([nH]c3ccc(Cl)cc23)C1c1ccc(C(=O)NCCCN2CCOCC2)cc1 (centres unmarked) [Compound 534] | 200 to 1000 nM |  |
| CCOC(=O)N1CCc2c([nH]c3ccc(Br)cc23)C1c1ccc(CNCCN2CCOCC2)cc1 (centres unmarked) [Compound 535] | 200 to 1000 nM |  |
| CCOC(=O)N1CCc2c([nH]c3ccc(Br)cc23)C1c1ccc(CN2CCCN(C)CC2)cc1 (centres unmarked) [Compound 541] | 200 to 1000 nM |  |
| CCOC(=O)N1CCc2c([nH]c3ccc(Cl)cc23)C1c1ccc(C(N)=O)cc1 (centres unmarked) [Compound 542] | 200 to 1000 nM |  |
| O=C1NC2CSC(CCCCC(=O)OCCOc3ccc(C4c5[nH]c6ccc(Cl)cc6c5CCN4C(=O)Oc4ccc(Cl)cc4)cc3)C2N1 (centres unmarked) [Compound 544] | < 8 nM |  |
| CCOC(=O)N1CCc2c([nH]c3ccc(Cl)cc23)C1C(C)CC (centres unmarked) [Compound 547] | 200 to 1000 nM |  |
| CCOC(=O)N1CCc2c([nH]c3ccc(Cl)cc23)C1c1cccc(C(=O)NCCN2CCOCC2)c1 (centres unmarked) [Compound 552] | 200 to 1000 nM |  |
| CCOC(=O)N1CCc2c([nH]c3ccc(Cl)cc23)C1C(C)Cc1ccc2c(c1)OCO2 (centres unmarked) [Compound 553] | 200 to 1000 nM |  |
| CCOC(=O)N1CCc2c([nH]c3ccc(Cl)cc23)C1c1cccc(C(=O)NCCOC)c1 (centres unmarked) [Compound 556] | 200 to 1000 nM |  |
| CCOC(=O)N1CCc2c([nH]c3ccc(Cl)cc23)C1c1ccc(C(=O)N(C)CCCN(C)C)cc1 (centres unmarked) [Compound 558] | 200 to 1000 nM |  |
| CCC(Br)C(=O)N1CCc2c([nH]c3ccc(Cl)cc23)C1c1ccc(OC)cc1 (centres unmarked) [Compound 559] | 200 to 1000 nM |  |
| CCOC(=O)N1CCc2c([nH]c3ccc(Br)cc23)C1c1ccc(C(=O)N2CCN(CCCN(C)C)CC2)cc1 (centres unmarked) [Compound 560] | > 1000 nM |  |
| CCOC(=O)N1CCc2c([nH]c3ccc(Cl)cc23)C1c1ccc(C(=O)N2CCC(NC(C)=O)C2)cc1 (centres unmarked) [Compound 561] | > 1000 nM |  |
| CCOC(=O)N1CCc2c([nH]c3ccc(Cl)cc23)C1c1cccc(C(=O)N2CCN(CCOC)CC2)c1 (centres unmarked) [Compound 562] | > 1000 nM |  |
| CCOC(=O)N1CCc2c([nH]c3ccc(Cl)cc23)C1c1ccc(C(=O)N(C)CCN(C)C)cc1 (centres unmarked) [Compound 563] | > 1000 nM |  |
| CC(C)(C)CC1NCCc2c1[nH]c1ccc(Cl)cc21 (centres unmarked) [Compound 565] | > 1000 nM |  |
| CCOC(=O)N1CCc2c([nH]c3ccc(Cl)cc23)C1c1cccc(CN2CCN(CCOC)CC2)c1 (centres unmarked) [Compound 567] | > 1000 nM |  |
| CSC(C)CC1NCCc2c1[nH]c1ccc(Cl)cc21 (centres unmarked) [Compound 568] | > 1000 nM |  |

| SMILES | EC50 (Homo sapiens) | EC50 |
| --- | --- | --- |
| O=C(Oc1ccc(Cl)cc1)N1CCc2c([nH]c3ccc(Br)cc23)C1c1ccc(C(F)(F)F)cc1 (centres unmarked) [Compound 570] |  | < 8 nM |
| O=C(Oc1ccc(Cl)cc1)N1CCc2c([nH]c3ccc(Cl)cc23)C1c1ccc(OCCO)cc1 (centres unmarked) [Compound 571] | 200 to 1000 nM |  |
| CC(C)c1ccc(C2c3[nH]c4ccc(Br)cc4c3CCN2C(=O)Oc2ccc(Cl)cc2)cc1 (centres unmarked) [Compound 572] |  | < 8 nM |
| O=C(Oc1ccc(F)cc1)N1CCc2c([nH]c3ccc(Cl)cc23)C1c1ccc(O)cc1 (centres unmarked) [Compound 575] | 200 to 1000 nM |  |
| O=C(Oc1ccc(F)cc1)Oc1ccc(C2c3[nH]c4ccc(Cl)cc4c3CCN2C(=O)Oc2ccc(F)cc2)cc1 (centres unmarked) [Compound 576] | 40 to 200 nM |  |
| O=C(Oc1ccc(Cl)cc1)N1CCc2c([nH]c3ccc(Cl)cc23)C1c1ccc(O)cc1 (centres unmarked) [Compound 577] | 40 to 200 nM |  |
| O=C(Oc1ccc(Cl)cc1)Oc1ccc(C2c3[nH]c4ccc(Cl)cc4c3CCN2C(=O)Oc2ccc(Cl)cc2)cc1 (centres unmarked) [Compound 578] | 40 to 200 nM |  |
| COC(=O)c1ccc(C2c3[nH]c4ccc(Cl)cc4c3CCN2C(=O)Oc2ccc(F)cc2)cc1 (centres unmarked) [Compound 579] |  | < 8 nM |
| COC(=O)c1ccc(C2c3[nH]c4ccc(Cl)cc4c3CCN2C(=O)Oc2ccc(Cl)cc2)cc1 (centres unmarked) [Compound 580] | < 8 nM |  |
| O=C(O)c1ccc(C2c3[nH]c4ccc(Cl)cc4c3CCN2C(=O)Oc2ccc(F)cc2)cc1 (centres unmarked) [Compound 581] | > 1000 nM |  |
| COc1ccc(C2c3[nH]c4ccc(Cl)cc4c3CCN2C(=O)Oc2ccccc2Cl)cc1 (centres unmarked) [Compound 587] | 40 to 200 nM |  |
| O=C(Oc1ccccc1Cl)N1CCc2c([nH]c3ccc(Cl)cc23)C1c1ccc(F)cc1 (centres unmarked) [Compound 588] | 40 to 200 nM |  |
| O=C(Oc1ccccc1Cl)N1CCc2c([nH]c3ccc(Cl)cc23)C1c1ccc(Cl)cc1 (centres unmarked) [Compound 589] | 40 to 200 nM |  |
| COC(=O)c1ccc(C2c3[nH]c4ccc(Cl)cc4c3CCN2C(=O)Oc2ccccc2Cl)cc1 (centres unmarked) [Compound 590] | 8 to 40 nM |  |
| COC(=O)c1ccc(C2c3[nH]c4ccc(Br)cc4c3CCN2C(=O)Oc2ccc(Cl)cc2)cc1 (centres unmarked) [Compound 591] | < 8 nM |  |
| COC(=O)c1ccc(C2c3[nH]c4ccc(Br)cc4c3CCN2C(=O)Oc2ccc(F)cc2)cc1 (centres unmarked) [Compound 592] | < 8 nM |  |
| COC(=O)c1ccc(C2c3[nH]c4ccc(Br)cc4c3CCN2C(=O)Oc2ccccc2Cl)cc1 (centres unmarked) [Compound 593] | 8 to 40 nM |  |
| O=C(Oc1ccccc1Cl)N1CCc2c([nH]c3ccc(Cl)cc23)C1c1ccc(C(F)(F)F)cc1 (centres unmarked) [Compound 594] | 40 to 200 nM |  |
| COc1ccc(C2c3[nH]c4ccc(OC)cc4c3CCN2C(=O)Oc2ccc(Cl)cc2)cc1 (centres unmarked) [Compound 614] | 200 to 1000 nM |  |
| COc1ccc(C2c3[nH]c4ccc(OCc5ccccc5)cc4c3CCN2C(=O)Oc2ccc(Cl)cc2)cc1 (centres unmarked) [Compound 616] | 200 to 1000 nM |  |
| O=C(Oc1ccc(Cl)cc1)N1CCc2c([nH]c3ccc(Cl)cc23)C1c1ccc(OCCCI)cc1 (centres unmarked) [Compound 617] | 8 to 40 nM |  |
| O=C(Oc1ccccc1)N1CCc2c([nH]c3ccc(Cl)cc23)C1c1ccc(OCC(O)CO)cc1 (centres unmarked) [Compound 626] | 8 to 40 nM |  |

— patent US8076352B2, “Administration of carboline derivatives useful in the treatment of cancer and other diseases” (PTC Therapeutics, Inc., priority 2004, dated 2011)
